Tests used:
[1] = test system: MRI-measured brain lesions; conditions: MS patients, cited from earlier work
[2] = test system: brain lesions associated with progression of MS; test: Study of sixty patients with chronic multiple sclerosis: MRI brain lesions after one year of treatment; type: in vivo; conditions: seven days once per month for one year, MRI at month 12
Protocol: A study of sixty patients with chronic multiple sclerosis is undertaken. Each patient is first examined for normal hepatic, renal, and bone marrow functioning to establish baseline values. [table] Each of the patients in Groups 2-4 and 8-10 is treated with 2-CdA dissolved in sterile preservative-free isotonic saline, whereas patients in Groups 1 and 5-7 receive a placebo (saline). The 2-CdA is administered intravenously for a total of seven days, once per month for a total of one year. Each of the patients in Groups 5-10 is treated with natalizumab, whereas Groups 1-4 received placebo (saline). The natalizumab is administered intravenously for a total of seven days, once per month for a total of one year, with the treatment being on the same day as 2-CdA treatment. Patients are monitored to determine whether there is any progression or improvement of brain lesions associated with progression of MS. All patients have a baseline and MRI study (brain or spinal cord, according to localization of the lesions) at month 12.

Molecule | MRI-measured brain lesions ([1]; Phase II study as printed (Rice et al., 2000)) | adverse effects ([1]; observed with the highest doses) | change in brain lesions (MRI) ([2]; Group 2: 2-CdA 0.25 mg/kg i.v.) | change in brain lesions (MRI) ([2]; Group 3: 2-CdA 0.5 mg/kg i.v.) | change in brain lesions (MRI) ([2]; Group 4: 2-CdA 1 mg/kg i.v.) | change in brain lesions (MRI) ([2]; Group 5: natalizumab 1 mg/kg i.v.) | change in brain lesions (MRI) ([2]; Group 6: natalizumab 3 mg/kg i.v.) | change in brain lesions (MRI) ([2]; Group 7: natalizumab 6 mg/kg i.v.)
Nc1nc(Cl)nc2c1ncn2[C@H]1C[C@H](O)[C@@H](CO)O1 [2-CdA, 2-chloro-2′-deoxyadenosine] | significantly reduced MRI-measured brain lesions | increased incidence of infections related to compromised immune function or myelosuppression | increase in brain lesions | increase in brain lesions | decrease in brain lesions | – | – | –
natalizumab: anti-alpha-4 integrin antibody used as the second agent in Example 1 | – | – | – | – | – | increase in brain lesions | decrease in brain lesions | decrease in brain lesions
